Experimental data: patent US20090181963A1, “3H-[1,2,3]TRIAZOLO[4,5-D]PYRIMIDINE COMPOUNDS, THEIR USE AS mTOR KINASE AND PI3 KINASE INHIBITORS, AND THEIR [sequence]” (Wyeth, priority 2008, published 2009)

Assays:
[1] = target: PI3 Kinase α (Homo sapiens, UniProt P42336); assay: Fluorescence polarization assay for PI3K (PI3 Kinase α); format: biochemical; conditions: diC8-PI(4,5)P2 substrate, 25 μM ATP, one hour at 25° C.
Experimental: (§1) Nunc 384 well black polypropylene fluorescent plates were used for PI3K assays. Reactions were quenched by the addition of EDTA to a final concentration of 10 μM. Final reaction volumes were 10 ml. […] Reactions were allowed to proceed for one hour at 25° C. After I hour, GST-tagged GRP1 (general receptor for phosphoinositides) PH domain fusion protein was added to a final concentration of 100 nM, and BODIPY-TMRI(1,3,4,5)P4 (Echelon) was also added to a final concentration of 5 nM. Final sample volumes were 25 μl with a final DMSO concentration of 0.8%. Assay Plates were read on PerkinElmer Envision plate readers with appropriate filters for Tamra [BODIPY-TMRI(1,3,4,5)P4]. Data obtained were used to calculate enzymatic activity and enzyme inhibition by inhibitor compounds.

[2] = target: PI3 Kinase γ (Homo sapiens, UniProt P48736); assay: Fluorescence polarization assay for PI3K (PI3 Kinase γ); format: biochemical; conditions: diC8-PI(4,5)P2 substrate, 25 μM ATP, one hour at 25° C.
PI3 Kinase γ, sequence (P48736 whole entry): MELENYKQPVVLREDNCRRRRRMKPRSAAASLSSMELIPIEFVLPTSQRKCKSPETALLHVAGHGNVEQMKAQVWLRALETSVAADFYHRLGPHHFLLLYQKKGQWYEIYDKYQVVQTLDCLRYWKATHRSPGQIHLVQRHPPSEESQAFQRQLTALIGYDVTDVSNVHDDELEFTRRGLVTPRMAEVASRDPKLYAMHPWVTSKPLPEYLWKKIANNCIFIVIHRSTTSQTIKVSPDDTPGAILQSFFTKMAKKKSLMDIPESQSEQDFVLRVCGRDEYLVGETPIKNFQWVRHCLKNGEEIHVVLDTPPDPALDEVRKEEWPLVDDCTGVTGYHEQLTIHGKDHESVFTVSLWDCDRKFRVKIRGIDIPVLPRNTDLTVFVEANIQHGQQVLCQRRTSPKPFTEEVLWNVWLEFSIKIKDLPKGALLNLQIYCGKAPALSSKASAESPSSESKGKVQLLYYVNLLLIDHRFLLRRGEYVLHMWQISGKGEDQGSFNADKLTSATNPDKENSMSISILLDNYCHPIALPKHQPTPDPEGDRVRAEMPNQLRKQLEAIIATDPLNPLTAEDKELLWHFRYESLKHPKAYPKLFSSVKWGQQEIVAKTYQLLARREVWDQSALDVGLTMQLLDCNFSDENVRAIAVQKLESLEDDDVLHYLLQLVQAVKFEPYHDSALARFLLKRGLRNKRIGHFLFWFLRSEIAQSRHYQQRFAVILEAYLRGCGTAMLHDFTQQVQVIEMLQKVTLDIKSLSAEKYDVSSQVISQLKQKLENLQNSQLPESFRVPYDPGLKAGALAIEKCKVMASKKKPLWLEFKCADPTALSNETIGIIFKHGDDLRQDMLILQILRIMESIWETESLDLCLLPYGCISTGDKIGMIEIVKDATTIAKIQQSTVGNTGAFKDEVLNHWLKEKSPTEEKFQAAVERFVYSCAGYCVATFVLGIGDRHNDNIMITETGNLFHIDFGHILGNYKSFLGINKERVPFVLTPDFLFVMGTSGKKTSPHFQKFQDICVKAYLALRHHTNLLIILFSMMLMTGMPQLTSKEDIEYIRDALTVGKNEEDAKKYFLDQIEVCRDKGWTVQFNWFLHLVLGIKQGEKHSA
Experimental: as §1

PI3 Kinase α, sequence (P42336 whole entry): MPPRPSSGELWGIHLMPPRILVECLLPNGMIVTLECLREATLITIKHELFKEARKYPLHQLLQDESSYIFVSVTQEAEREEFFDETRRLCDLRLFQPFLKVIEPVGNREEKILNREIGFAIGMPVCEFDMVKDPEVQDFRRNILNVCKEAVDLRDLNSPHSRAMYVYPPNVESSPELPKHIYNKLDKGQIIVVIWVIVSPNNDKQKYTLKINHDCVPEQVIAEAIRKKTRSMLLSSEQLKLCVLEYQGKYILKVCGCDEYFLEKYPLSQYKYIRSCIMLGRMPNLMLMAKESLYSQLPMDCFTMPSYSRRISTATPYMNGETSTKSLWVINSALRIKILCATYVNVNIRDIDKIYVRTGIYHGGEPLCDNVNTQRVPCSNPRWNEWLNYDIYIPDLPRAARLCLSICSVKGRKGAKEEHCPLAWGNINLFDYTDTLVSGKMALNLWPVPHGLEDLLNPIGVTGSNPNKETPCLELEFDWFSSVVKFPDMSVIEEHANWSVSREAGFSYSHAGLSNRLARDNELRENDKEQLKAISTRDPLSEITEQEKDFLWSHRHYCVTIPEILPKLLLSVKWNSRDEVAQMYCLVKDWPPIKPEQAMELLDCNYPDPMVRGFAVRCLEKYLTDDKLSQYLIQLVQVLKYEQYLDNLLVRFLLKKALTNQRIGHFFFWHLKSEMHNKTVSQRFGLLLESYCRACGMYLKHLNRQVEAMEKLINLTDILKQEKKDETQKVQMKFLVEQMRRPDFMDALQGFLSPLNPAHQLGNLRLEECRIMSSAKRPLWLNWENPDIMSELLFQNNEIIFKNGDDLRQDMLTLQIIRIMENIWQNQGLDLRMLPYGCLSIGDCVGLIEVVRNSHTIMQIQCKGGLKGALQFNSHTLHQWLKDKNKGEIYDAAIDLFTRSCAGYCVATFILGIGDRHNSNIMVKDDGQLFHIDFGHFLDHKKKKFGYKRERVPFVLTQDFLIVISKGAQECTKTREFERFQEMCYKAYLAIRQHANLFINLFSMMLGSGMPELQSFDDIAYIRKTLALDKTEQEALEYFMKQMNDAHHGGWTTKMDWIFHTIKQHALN
PI3 Kinase α, sequence (P27986 whole entry partner): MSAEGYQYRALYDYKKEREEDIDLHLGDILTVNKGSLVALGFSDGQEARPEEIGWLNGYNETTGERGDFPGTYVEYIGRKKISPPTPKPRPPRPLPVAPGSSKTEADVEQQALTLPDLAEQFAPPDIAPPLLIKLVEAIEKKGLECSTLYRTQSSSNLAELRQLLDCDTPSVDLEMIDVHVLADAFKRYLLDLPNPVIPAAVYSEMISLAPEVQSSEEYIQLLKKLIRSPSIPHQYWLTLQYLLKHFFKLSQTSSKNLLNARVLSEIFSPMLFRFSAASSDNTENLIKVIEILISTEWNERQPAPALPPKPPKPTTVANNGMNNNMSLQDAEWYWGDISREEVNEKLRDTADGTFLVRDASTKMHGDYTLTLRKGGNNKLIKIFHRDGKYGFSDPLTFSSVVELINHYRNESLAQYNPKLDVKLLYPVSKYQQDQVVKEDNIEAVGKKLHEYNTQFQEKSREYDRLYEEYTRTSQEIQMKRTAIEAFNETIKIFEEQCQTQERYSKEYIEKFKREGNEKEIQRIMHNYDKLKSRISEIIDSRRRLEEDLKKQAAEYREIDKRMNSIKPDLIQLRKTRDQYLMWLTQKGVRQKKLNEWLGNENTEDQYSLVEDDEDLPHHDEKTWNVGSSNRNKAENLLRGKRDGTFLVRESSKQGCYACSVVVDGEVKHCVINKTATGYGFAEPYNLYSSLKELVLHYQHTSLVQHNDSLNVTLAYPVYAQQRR

SMILES: Oc1cncc(-c2nc(N3CCOCC3)c3nnn(C4CCNCC4)c3n2)c1 [Example 12, 5-(7-morpholin-4-yl-3-piperidin-4-yl-3H-[1,2,3]triazolo[4,5-d]pyrimidin-5-yl)pyridin-3-ol]
- IC50 [1]: 80 nM
- IC50 [2]: 168 nM

SMILES: CCn1nnc2c(N3CCOCC3)nc(-c3ccc(NC(=O)Nc4ccc(C(=O)O)cc4)cc3)nc21 [Example 42, 4-({[4-(3-ethyl-7-morpholin-4-yl-3H-[1,2,3]triazolo[4,5-d]pyrimidin-5-yl)phenyl]carbamoyl}amino)benzoic acid]
- IC50 [1]: 10.5 nM
- IC50 [2]: 35.3 nM

SMILES: Oc1cccc(-c2nc(N3CCOCC3)c3nnn(C4CCN(Cc5ccccn5)CC4)c3n2)c1 [Example 149, 3-{7-morpholin-4-yl-3-[1-(pyridin-2-ylmethyl)piperidin-4-yl]-3H-[1,2,3]triazolo[4,5-d]pyrimidin-5-yl}phenol]
- IC50 [1]: 67 nM
- IC50 [2]: 735 nM

SMILES: Nc1ncc(CN2CCC(n3nnc4c(N5CCOCC5)nc(-c5cncc(O)c5)nc43)CC2)s1 [Example 171, 5-(3-{1-[(2-amino-1,3-thiazol-5-yl)methyl]piperidin-4-yl}-7-morpholin-4-yl-3H-[1,2,3]triazolo[4,5-d]pyrimidin-5-yl)pyridin-3-ol]
- IC50 [1]: 76.5 nM
- IC50 [2]: 144 nM

SMILES: Oc1cccc(-c2nc(N3CCOCC3)c3nnn(C4CNC4)c3n2)c1 [Example 125, 3-(3-azetidin-3-yl-7-morpholin-4-yl-3H-[1,2,3]triazolo[4,5-d]pyrimidin-5-yl)phenol]
- IC50 [1]: 130 nM
- IC50 [2]: 1960 nM

SMILES: O=C(c1cccc(-n2nnc3c(N4CCOCC4)nc(-c4cccc(O)c4)nc32)c1)N1CCC(N2CCCC2)CC1 [Example 120, 3-(7-morpholin-4-yl-3-{3-[(4-pyrrolidin-1-ylpiperidin-1-yl)carbonyl]phenyl}-3H-[1,2,3]triazolo[4,5-d]pyrimidin-5-yl)phenol]
- IC50 [1]: 15.5 nM
- IC50 [2]: 290 nM

SMILES: O=C(c1ccc(Cn2nnc3c(N4CCOCC4)nc(-c4cccc(O)c4)nc32)cc1)N1CCN(c2ccccc2)CC1 [Example 229, 3-(7-morpholin-4-yl-3-{4-[(4-phenylpiperazin-1-yl)carbonyl]benzyl}-3H-[1,2,3]triazolo[4,5-d]pyrimidin-5-yl)phenol]
- IC50 [1]: 286 nM
- IC50 [2]: 10200 nM

SMILES: CN(C)CCCOc1ccc(CN2CC(Cn3nnc4c(N5CCOCC5)nc(-c5ccc(NC(=O)Nc6ccccc6)cc5)nc43)C2)cc1 [Example 194, 1-(4-{3-[(1-{4-[3-(Dimethylamino)propoxy]benzyl}azetidin-3-yl)methyl]-7-morpholin-4-yl-3H-[1,2,3]triazolo[4,5-d]pyrimidin-5-yl}phenyl)-3-phenylurea]
- IC50 [1]: 31 nM
- IC50 [2]: 210 nM

SMILES: CC(=O)NCCNC(=O)c1ccc(Cn2nnc3c(N4CCOCC4)nc(-c4cccc(O)c4)nc32)cc1 [Example 210, N-(2-acetamidoethyl)-4-{[5-(3-hydroxyphenyl)-7-morpholin-4-yl-3H-[1,2,3]triazolo[4,5-d]pyrimidin-3-yl]methyl}benzamide]
- IC50 [1]: 692 nM
- IC50 [2]: 782 nM

SMILES: CN(C)CCNC(=O)Nc1ccc(-c2nc(N3CCOCC3)c3nnn(C4CCN(Cc5cccnc5)CC4)c3n2)cc1 [Example 154, 1-(2-(dimethylamino)ethyl)-3-(4-(7-morpholino-3-(1-(pyridin-3-ylmethyl)piperidin-4-yl)-3H-[1,2,3]triazolo[4,5-d]pyrimidin-5-yl)phenyl)urea]
- IC50 [1]: 206 nM
- IC50 [2]: 58 nM

SMILES: CC(C)n1nnc2c(N3CCOCC3)nc(-c3ccc(NC(=O)Nc4ccc(N(C)C)cc4)cc3)nc21 [Example 86, 1-(4-dimethylamino-phenyl)-3-[4-(3-isopropyl-7-morpholin-4-yl-3H-[1,2,3]triazolo[4,5-d]pyrimidin-5-yl)-phenyl]-urea]
- IC50 [1]: 23.5 nM
- IC50 [2]: 69 nM

SMILES: Oc1cncc(-c2nc(N3CCOCC3)c3nnn(C4CCN(Cc5ccccc5)CC4)c3n2)c1 [Example 3, 5-[3-(1-benzylpiperidin-4-yl)-7-morpholin-4-yl-3H-[1,2,3]triazolo[4,5-d]pyrimidin-5-yl]pyridin-3-ol]
- IC50 [1]: 69 nM
- IC50 [2]: 133 nM

SMILES: O=C(Nc1ccc(-c2nc(N3CCOCC3)c3nnn(C4CCNCC4)c3n2)cc1)Nc1cccnc1 [Example 163, 1-[4-(7-morpholin-4-yl-3-piperidin-4-yl-3H-[1,2,3]triazolo[4,5-d]pyrimidin-5-yl)phenyl]-3-pyridin-3-ylurea]
- IC50 [1]: 13.5 nM
- IC50 [2]: 49.5 nM

SMILES: O=C(Nc1ccncc1)Nc1ccc(-c2nc(N3CCOCC3)c3nnn(C4CCNCC4)c3n2)cc1 [Example 167, 1-[4-(7-morpholin-4-yl-3-piperidin-4-yl-3H-[1,2,3]triazolo[4,5-d]pyrimidin-5-yl)phenyl]-3-pyridin-4-ylurea]
- IC50 [1]: 9 nM
- IC50 [2]: 91.5 nM

SMILES: Nc1ccc(-c2nc(N3CCOCC3)c3nnn(C4CC4)c3n2)cc1 [Example 77, 4-(3-cyclopropyl-7-morpholino-3H-[1,2,3]triazolo[4,5-d]pyrimidin-5-yl)aniline]
- IC50 [1]: 1840 nM
- IC50 [2]: 8000 nM

SMILES: OCc1cccc(-c2nc(N3CCOCC3)c3nnn(C4CCN(Cc5ccccc5)CC4)c3n2)c1 [Example 177, {3-[3-(1-benzylpiperidin-4-yl)-7-morpholin-4-yl-3H-[1,2,3]triazolo[4,5-d]pyrimidin-5-yl]phenyl}methanol]
- IC50 [1]: 83.5 nM
- IC50 [2]: 435 nM

SMILES: O=C(O)Cn1nnc2c(N3CCOCC3)nc(-c3cccc(O)c3)nc21 [Example 245, [5-(3-hydroxyphenyl)-7-morpholin-4-yl-3H-[1,2,3]triazolo[4,5-d]pyrimidin-3-yl]acetic acid]
- IC50 [1]: 298 nM
- IC50 [2]: 1940 nM

SMILES: CC(C)(C)OC(=O)N1CCN(CCn2nnc3c(N4CCOCC4)nc(-c4cccc(O)c4)nc32)CC1 [Example 97, tert-butyl 4-{2-[5-(3-hydroxyphenyl)-7-morpholin-4-yl-3H-[1,2,3]triazolo[4,5-d]pyrimidin-3-yl]ethyl}piperazine-1-carboxylate]
- IC50 [1]: 1020 nM
- IC50 [2]: 4360 nM

SMILES: CN(C)CCNC(=O)Nc1ccc(-c2nc(N3CCOCC3)c3nnn(C4CCN(C(=O)OC(C)(C)C)CC4)c3n2)cc1 [Example 151, tert-butyl 4-(5-(4-(3-(2-(dimethylamino)ethyl)ureido)phenyl)-7-morpholino-3H-[1,2,3]triazolo[4,5-d]pyrimidin-3-yl)piperidine-1-carboxylate]
- IC50 [1]: 296 nM
- IC50 [2]: 748 nM

SMILES: CCn1nnc2c(N3CCOC[C@@H]3C)nc(-c3ccc(NC(=O)Nc4ccncc4)cc3)nc21 [Example 71, (S)-1-(4-(3-ethyl-7-(3-methylmorpholino)-3H-[1,2,3]triazolo[4,5-d]pyrimidin-5-yl)phenyl)-3-(pyridin-4-yl)urea]
- IC50 [1]: 7 nM
- IC50 [2]: 55.5 nM

SMILES: Oc1cccc(-c2nc(N3CCOCC3)c3nnn(CCN4CCN(Cc5ccc[nH]5)CC4)c3n2)c1 [Example 112, 3-(7-morpholin-4-yl-3-{2-[4-(1H-pyrrol-2-ylmethyl)piperazin-1-yl]ethyl}-3H-[1,2,3]triazolo[4,5-d]pyrimidin-5-yl)phenol]
- IC50 [1]: 154 nM
- IC50 [2]: 1020 nM

SMILES: CN(C)CCCOc1ccc(CN2CCN(CCn3nnc4c(N5CCOCC5)nc(-c5cccc(O)c5)nc43)CC2)cc1 [Example 110, 3-{3-[2-(4-{4-[3-(dimethylamino)propoxy]benzyl}piperazin-1-yl)ethyl]-7-morpholin-4-yl-3H-[1,2,3]triazolo[4,5-d]pyrimidin-5-yl}phenol]
- IC50 [1]: 200 nM
- IC50 [2]: 402 nM
